Biological target: T1, αLβ2 (Homo sapiens, UniProt P05107+P20701)
T1 construct: endogenous in cells; host or cells: JY cells
Assay: JY/αLβ2 cell adhesion to ICAM-1/Ig
Format: cell-based
Conditions: PMA-treated JY cells
Experimental: To assess the selectivity of each compound, an IC50 value was determined for additional binding partner compounds JY/αVβ3 and vitronectin, JY/α4β1 and VCAM/Ig, JY/αdβ2 and VCAM, JY/[…] and ICAM-1, JY/αMβ2 and iC3b, and JY/α4β7 and MAdCAM-1.
For each IC50 assay, 50 μl of the ligand diluted in 50 mM bicarbonate buffer (pH 9.6) was dispensed per well of an Immulon-4 plate. A single plate was used to test two different ligands, each in triplicate, The coating concentration for the various ligands was as follows: VCAM-1/Ig at 2.0 μg/ml; ICAM-1/Ig at 5.0 μg/ml; vitronectin at 0.5 μg/ml; MAdCAM-1/Ig at 3.0 μg/ml, and iC3b at 5.0 μg/ml. The capture antibody, e.g. anti-CD18 monoclonal antibody TS1/22, was added at a concentration of 10 μg/ml in 50 μl/well. Ligand-coated plates were covered and stored overnight at 4° C. The following day, the contents of each well was decanted, and each plate was washed three times with 200 μl/well D-PBS. The plate was then blocked by the addition of 300 μl/well of 1% BSA/D-PBS solution. Each plate was again covered and incubated at room temperature for at least 1 hour.
Prior to transfer to the adhesion plate, the compounds were initially diluted by transferring 4.2 μl of the diluted compounds to a 96-well deepwell titer plate containing 0.7 ml/well of RPMI 1640, 0.1% BSA, and 3 ng/ml PMA (Sigma Corp., St. Louis, Mo.) pre-warmed to 37° C. The 1% BSA/D-PBS blocking solution was decanted from the 96-well Immulon-4 plates and replaced with 0.2 ml of diluted compound. For each 96-well plate to be screened, approximately 8×10^6 cells were collected by centrifugation and resuspended in adhesion media (RPMI 1640 containing 0.1% BSA) to a final concentration of 10^6/ml. To prevent PMA-dependent homotypic aggregation in the adhesion assay, the anti-CD18 antibody 22F12C (ICOS Corp., Bothell, Wash.) was added to the cell suspensions to a final concentration of 10 μg/ml, and the cells were incubated at 37° C. for 15 min. This antibody was not added to CD18-dependent adhesion assays involving JY/αLβ2, JY/αdβ2 or JY/αMβ2 and their corresponding ligands ICAM-1, VCAM-1, or iC3b.
The adhesion assay was initiated by addition of 100 μl of the cell suspension to each well of the Immulon-4 plate. […] Adherent cells were quantitated by determining the absorbance at 570 nm in a plate spectrophotometer. The percentage of cell binding was determined by using the mean values for each triplicate in a given assay and the formula below. […]
The four compounds Cmpd K, Cmpd W, Cmpd Z, Cmpd D identified in the primary screen were selected for further specificity profiling, whereby their IC50 values were determined in additional integrin-dependent adhesive events. […]

T1 sequence (P20701 26-1170): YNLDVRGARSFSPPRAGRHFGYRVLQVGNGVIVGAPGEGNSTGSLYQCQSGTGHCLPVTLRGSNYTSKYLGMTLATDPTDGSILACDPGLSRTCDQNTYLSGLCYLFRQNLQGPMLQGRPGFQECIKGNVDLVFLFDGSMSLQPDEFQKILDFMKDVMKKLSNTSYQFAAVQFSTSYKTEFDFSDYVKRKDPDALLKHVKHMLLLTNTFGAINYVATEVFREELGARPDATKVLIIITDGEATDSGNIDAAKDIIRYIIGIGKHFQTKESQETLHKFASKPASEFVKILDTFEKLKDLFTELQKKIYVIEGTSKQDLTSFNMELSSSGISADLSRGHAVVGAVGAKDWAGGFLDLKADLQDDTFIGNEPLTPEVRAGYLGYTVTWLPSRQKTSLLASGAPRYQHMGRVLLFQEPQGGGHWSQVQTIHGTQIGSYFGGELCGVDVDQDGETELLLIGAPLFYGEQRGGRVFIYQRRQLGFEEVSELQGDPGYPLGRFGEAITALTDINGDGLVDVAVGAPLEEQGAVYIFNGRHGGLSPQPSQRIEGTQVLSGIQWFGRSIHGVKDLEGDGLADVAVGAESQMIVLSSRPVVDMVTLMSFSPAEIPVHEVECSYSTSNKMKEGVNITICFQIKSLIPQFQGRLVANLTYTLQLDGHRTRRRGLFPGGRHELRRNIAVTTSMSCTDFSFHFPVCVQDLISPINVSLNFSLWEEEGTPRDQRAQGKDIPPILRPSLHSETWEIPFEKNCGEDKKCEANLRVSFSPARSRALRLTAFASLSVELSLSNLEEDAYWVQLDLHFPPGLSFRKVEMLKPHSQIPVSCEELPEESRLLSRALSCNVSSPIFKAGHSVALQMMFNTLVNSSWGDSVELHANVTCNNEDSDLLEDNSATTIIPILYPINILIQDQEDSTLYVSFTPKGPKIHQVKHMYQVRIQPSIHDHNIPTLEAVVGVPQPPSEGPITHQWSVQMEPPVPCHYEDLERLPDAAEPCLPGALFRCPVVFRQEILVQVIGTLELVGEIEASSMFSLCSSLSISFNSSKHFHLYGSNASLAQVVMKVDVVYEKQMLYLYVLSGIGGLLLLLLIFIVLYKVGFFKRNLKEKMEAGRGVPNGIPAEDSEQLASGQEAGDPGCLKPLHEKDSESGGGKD
T1 sequence (P05107 23-769 partner): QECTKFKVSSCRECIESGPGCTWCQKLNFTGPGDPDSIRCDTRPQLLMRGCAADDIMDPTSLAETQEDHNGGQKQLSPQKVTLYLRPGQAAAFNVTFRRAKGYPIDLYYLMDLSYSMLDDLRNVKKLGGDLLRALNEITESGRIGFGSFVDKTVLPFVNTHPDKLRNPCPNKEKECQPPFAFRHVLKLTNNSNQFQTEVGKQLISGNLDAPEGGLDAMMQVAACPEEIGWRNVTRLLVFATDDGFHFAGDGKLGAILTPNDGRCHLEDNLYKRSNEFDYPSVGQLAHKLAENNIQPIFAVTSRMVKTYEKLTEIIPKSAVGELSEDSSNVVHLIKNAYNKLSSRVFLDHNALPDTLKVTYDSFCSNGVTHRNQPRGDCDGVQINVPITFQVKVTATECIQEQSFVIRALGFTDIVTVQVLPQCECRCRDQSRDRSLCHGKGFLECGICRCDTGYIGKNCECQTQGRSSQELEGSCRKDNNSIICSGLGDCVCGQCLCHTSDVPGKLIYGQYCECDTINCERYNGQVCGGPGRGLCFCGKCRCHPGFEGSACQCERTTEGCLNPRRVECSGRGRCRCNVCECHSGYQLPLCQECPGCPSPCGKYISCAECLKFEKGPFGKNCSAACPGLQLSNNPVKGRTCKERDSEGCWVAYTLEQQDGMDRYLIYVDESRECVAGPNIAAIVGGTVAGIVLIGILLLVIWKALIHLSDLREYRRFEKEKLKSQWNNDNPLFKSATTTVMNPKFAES

| Structure (SMILES) | IC50 [µM] |
| --- | --- |
| CC(=O)Oc1ccccc1C(=O)n1c(-c2ccccc2)cc2ccccc21 [Cmpd D] | 28 |
| O=C(NCc1cccnc1)c1ccccc1C(=O)Nc1sc2ccccc2c1Cl [Cmpd K] | 11 |
| Nc1ccc(Sc2ccc(NC(=O)CCc3ccccc3)cc2)c(Cl)c1 [Cmpd W] | 30 |
| CC(CN(C)C)NCc1ccccc1Sc1ccc(C(C)(C)C)cc1 (stereo not shown) [Cmpd Z] | 20 |
